From a melting point compilation (Tetko et al.)

Row | SMILES | melting point [°C]
1 | CCCC=C(C#N)C(=O)O | 96 to 98
2 | CC(C)(C)OC(=O)N1CC(OCC(=O)O)C1 | 93 to 95
3 | Nc1nc(-c2ccc([N+](=O)[O-])cc2)n[nH]1 | 278 to 280
4 | O=C(O)CCN1CCSC1=O | 91 to 93
5 | Cc1cc2ncn(CC3CO3)c2cc1C (stereo unspecified) | 119 to 121
6 | CC(=O)c1csc(C(=O)CCl)c1 | 124 to 126
7 | O=C(O)c1cc(S(=O)(=O)N2CCOCC2)c[nH]1 | 264 to 266
8 | O=C1CC(CO)CN1CCc1ccccc1 (stereo unspecified) | 65 to 67
9 | O=C(c1ccc(Cl)cc1)c1ccc2c(c1)OCO2 | 128 to 130
10 | COc1ccc(C(C)=O)cc1CN1CCCCC1 | 54 to 56
11 | COc1cc(-n2cnnn2)c(Cl)cc1C(=O)O | 331 to 333
12 | O=C1COc2ccncc2N1 | 268 to 270
13 | Cc1ccc(-c2n[nH]cc2Br)cc1 | 104 to 106
14 | CC(C)COc1ncc(C(=O)O)cc1Cl | 106 to 108
15 | CC(C)(C)OC(=O)N1C[C@H](C(=O)O)[C@@H](C(F)(F)F)C1 | 117 to 119
16 | Fc1ccc(-n2ncc3c(Cl)ncnc32)cc1 | 154 to 156
17 | CC(C)(C)C(O)C(=O)O (stereo unspecified) | 65 to 67
18 | CN1C(=O)C(=O)c2ccc(F)cc21 | 137 to 139
19 | Nc1nc(C(=O)Nc2ccccc2)cs1 | 169 to 171
20 | Nc1ccc(CC(=O)N2CCN(c3ccccc3)CC2)cc1 | 201 to 203
21 | O=C(O)c1ccccc1NCc1cccnc1 | 189 to 191
22 | CN(C1CCCCC1)S(=O)(=O)c1ccc(C(=O)O)cc1 | 213 to 215
23 | COc1ncc(Cl)c(Cl)n1 | 43 to 45
24 | Cc1nc(Cl)ccc1CC(=O)O | 134 to 136
25 | O=[N+]([O-])c1ccc(OCc2ccco2)nc1 | 87 to 89

Row | SMILES | melting point [°C]
26 | COc1ccc(Br)cc1CBr | 51 to 58
27 | N#CCc1ccccc1C(=O)O | 106 to 108
28 | O=C1CC(c2ccccc2)=NN1c1ccccc1 | 138 to 140
29 | COc1cccc(C(N)=NO)c1 | 103 to 105
30 | O=Cc1ccccc1OCC(F)(F)F | 51 to 53
31 | O=C(O)Cn1cncn1 | 199 to 201
32 | Cc1cc(C)c2c(=O)[nH]sc2n1 | 195 to 197
33 | COc1ccc(Br)cc1CC(=O)O | 132 to 134
34 | Brc1cnn(-c2ccncc2)c1 | 125 to 127
35 | Cc1nn(C)c(N)c1SC#N | 176 to 178
36 | Cc1ncsc1-c1nc(CCl)no1 | 82 to 84
37 | CC(C)(C)OC(=O)NC(C(=O)O)C1CCCCC1 (stereo unspecified) | 163 to 165
38 | O=C(O)Cc1ccc(NS(=O)(=O)c2ccc(Cl)c(Cl)c2)cc1 | 174 to 176
39 | Cc1ccc(F)c(N2CCCC(Br)C2=O)c1 (stereo unspecified) | 74 to 76
40 | O=C(O)c1cc(-c2ccccc2)c(N2CCOCC2)s1 | 172 to 174
41 | CCc1nc(C)c(C(=O)O)s1 | 165 to 167
42 | COC(=O)c1c[nH]nn1 | 139 to 141
43 | CC(C)Oc1ccc(S(=O)(=O)Cl)cc1Cl | 95 to 97
44 | Nc1c(F)cccc1-n1cncn1 | 103 to 105
45 | CC(C)(C)OC(=O)N1CCN(c2ccc(CN)cc2F)CC1 | 69 to 71
46 | CC1=NN(CC(C)C)C(=O)C1 | 124 to 126
47 | CC(=O)c1ccn(S(=O)(=O)c2ccc(C)cc2)c1 | 83 to 85
48 | CC(=O)c1cnc2ccnn2c1C | 80 to 82
49 | CC(=O)NNC(=O)CCl | 157 to 159
50 | CC1CNC(=Nc2cccc3cccnc23)S1 (stereo unspecified) | 92 to 94

Row | SMILES | melting point [°C]
51 | Nc1cccnc1-n1cccn1 | 65 to 67
52 | CC(C)Oc1ccc(CNC(=O)CCl)cc1 | 63 to 65
53 | CC1(NC(=O)CCl)CCS(=O)(=O)C1 (stereo unspecified) | 96 to 98
54 | Nc1sc2c(c1C(=O)c1ccc(F)cc1)CCC2 | 139 to 141
55 | Nc1cc(F)c(Br)cc1[N+](=O)[O-] | 166 to 168
56 | CS(=O)(=O)c1ccc2nnn(O)c2c1 | 192 to 194
57 | Cc1c(Br)cccc1S(=O)(=O)Cl | 64 to 66
58 | O=C1COc2ncc(C(=O)O)cc2N1 | 319 to 321
59 | CCCCOc1ccc(C=CC(=O)O)cc1OCC | 109 to 111
60 | CS(=O)(=O)N1CCC(N=C=O)CC1 | 84 to 86
61 | COc1ccc(-c2nn(-c3ccccc3)cc2C=CC(=O)O)cc1 | 238 to 240
62 | Cc1sc2nc(-c3cccs3)nc(Cl)c2c1C | 130 to 137
63 | O=C(O)c1cc(Cl)ccc1Oc1ccc(F)cc1 | 102 to 104
64 | CN(C1CCCCC1)S(=O)(=O)c1ccccc1N | 98 to 101
65 | CC(=O)c1cccc(OCCOc2cccc(C(C)=O)c2)c1 | 117 to 119
66 | BrCCOc1ccc(Oc2ccccc2)cc1 | 35 to 37
67 | N#CCC(=O)Nc1cccc(Cl)c1 | 139 to 141
68 | COC(=O)CCOc1ccc(Cl)cc1Cl | 35 to 37
69 | CCC(=O)N1CCc2cc(C(=O)CCl)ccc21 | 201 to 203
70 | Cc1n[nH]c2ncc(N)cc12 | 186 to 188
71 | CCOC(=O)c1nc(-c2ccccc2)oc1CBr | 94 to 96
72 | CC(C)(C)c1cc(N)n(-c2ncccn2)n1 | 194 to 196
73 | NS(=O)(=O)c1ccc(S)nc1 | 242 to 244
74 | O=C(CO)Nc1ccccc1 | 79 to 81
75 | NS(=O)(=O)c1cccnc1Cl | 183 to 185

Row | SMILES | melting point [°C]
76 | O=C(O)CNS(=O)(=O)c1cc(C(F)(F)F)ccc1Cl | 157 to 159
77 | NC(=O)c1cccc2ncccc12 | 228 to 230
78 | CC(=O)c1ccc(OCCCC(=O)O)cc1 | 135 to 139
79 | NC(=O)CCNC(=O)c1ccccc1N | 197 to 199
80 | O=C(c1ccc(Br)cc1)c1ccco1 | 63 to 65
81 | NC(=O)c1ccsc1N | 160 to 162
82 | Nc1nnc(-c2ccco2)s1 | 250 to 252
83 | O=Cc1cccc(OCCCC(=O)O)c1 | 58 to 60
84 | NNc1nc(Cl)c(Cl)cc1Cl | 161 to 163
85 | O=C(O)c1ccc(-c2ccccc2OC(F)(F)F)cc1F | 150 to 152
86 | CCNc1ccc(C#N)cn1 | 88 to 90
87 | O=Cc1ccc(-c2cccc(Br)c2)o1 | 99 to 101
88 | CC(=O)OCC(N)=S | 75 to 77
89 | O=C(O)c1ccc(Cl)c(S(=O)(=O)NCC2CCCO2)c1 (stereo unspecified) | 207 to 209
90 | Cc1ccc(S(=O)(=O)N2CCOCC2)cc1NC(=O)CCl | 76 to 78
91 | N#Cc1cc(F)ccc1N=C=O | 31 to 33
92 | CCCNC(=O)c1ccc(Cl)nc1 | 108 to 110
93 | Cc1[nH]c(=O)[nH]c(=O)c1CO | 326 to 328
94 | CC(C)Oc1ccc(C(=O)NCC(=O)O)cc1 | 154 to 156
95 | CN1C(=O)CCc2cc(Br)ccc21 | 79 to 81
96 | Cn1cc(C(=O)Nc2ccc(O)cc2)cn1 | 231 to 233
97 | O=C(O)c1cccc(Oc2cccc(C(F)(F)F)c2)c1 | 115 to 117
98 | c1ccc2c(-c3nc4ccccc4[nH]3)cccc2c1 | 264 to 266
99 | c1ccc(OCc2nc3ccccc3[nH]2)cc1 | 163 to 165
100 | COC(=O)c1ccc2[nH]c(=O)[nH]c2c1 | 303 to 305

Row | SMILES | melting point [°C]
101 | CC(C)(C)OC(=O)CNC(=O)CCl | 66 to 68
102 | Nc1ccc(OCc2ccccn2)c(F)c1 | 67 to 69
103 | Cc1ccccc1CNC(=O)CCl | 105 to 107
104 | CC(C)NC(=O)CN(C)CC(N)=S | 140 to 142
105 | O=[N+]([O-])c1cccc(Cl)c1S(=O)(=O)Cl | 81 to 83
106 | Cc1cc(Cl)nc(-c2cccc([N+](=O)[O-])c2)n1 | 147 to 149
107 | CNc1ccc(Br)cc1N | 49 to 51
108 | O=C(O)CCn1c(=O)[nH]c(=O)c2ccccc21 | 231 to 233
109 | COC(=O)c1cc2c(C=O)ccc(OC)c2o1 | 171 to 173
110 | CC(C)NC(=O)NC(C)C | 191 to 193
111 | Clc1ccccc1Nc1nc2ccccc2s1 | 126 to 128
112 | COc1cc(OC)cc(N2CCCNCC2)c1 | 50 to 52
113 | Cc1cc(OC(F)F)c(C(=O)O)s1 | 155 to 157
114 | O=C(O)c1ccc(F)cc1S | 171 to 173
115 | CN(C)c1nc(=N)cc[nH]1 | 149 to 151
116 | CC(Sc1ncccc1C(=O)O)C(=O)N1CCCC1 (stereo unspecified) | 192 to 194
117 | O=C1CCCCC1n1ccc([N+](=O)[O-])n1 (stereo unspecified) | 128 to 130
118 | CNc1ncc(I)cn1 | 134 to 136
119 | Nc1nnc(CCc2ccccc2)c(=O)n1N | 243 to 245
120 | C=CC(=O)ON=C(N)c1cccc(Cl)c1 | 114 to 116
121 | COc1ccc2c(c1)OCC2=O | 119 to 121
122 | CC(C)(C)Oc1c(F)cc(N)cc1F | 99 to 101
123 | O=C(O)c1ccc(I)c(F)c1 | 233 to 235
124 | CNC(=O)c1cc(NC)ccn1 | 114 to 116
125 | COC(=O)c1ccc([N+](=O)[O-])cc1N | 156 to 158

Row | SMILES | melting point [°C]
126 | COCCOc1cccc(CNC(=O)CCl)c1 | 90 to 92
127 | Nc1nc(CCl)nc(Nc2ccccc2)n1 | 139 to 141
128 | CC1CN(C(CN)c2c(F)cccc2F)CC(C)O1 (stereo unspecified) | 59 to 61
129 | CN1CCCC[C@@H]1C(=O)O | 219 to 221
130 | O=C(O)C1(c2cccc(Br)c2)CCCC1 | 158 to 160
131 | CCCCN1C(=O)c2ccc(C(=O)O)cc2C1=O | 152 to 154
132 | CCn1cc(S(N)(=O)=O)cn1 | 86 to 88
133 | CC(=O)Nc1c(Br)cccc1[N+](=O)[O-] | 192 to 194
134 | OC1CCSc2ccccc21 (stereo unspecified) | 67 to 69
135 | Cn1c(=O)[nH]c2cnccc21 | 266 to 268
136 | Cn1ccnc1SCC(=O)O | 88 to 90
137 | Cc1ccccc1COc1ccccc1C(=O)O | 103 to 105
138 | O=C(O)c1ccccc1CSc1nnc[nH]1 | 177 to 179
139 | N#CNC1=NCCCCC1 | 79 to 81
140 | CN1CCN(C(=O)C2CNc3ccccc3O2)CC1 (stereo unspecified) | 132 to 134
141 | CC(C)c1ccc(NCC(=O)N2CCCC2)cc1 | 127 to 129
142 | Cc1cc(N2CCNCC2)nc(C(C)C)n1 | 42 to 46
143 | CC1Sc2ccc(C(=O)O)cc2NC1=O (stereo unspecified) | 230 to 232
144 | CC(NC(=O)c1cc(F)ccc1N)c1ccc(C#N)cc1 (stereo unspecified) | 139 to 141
145 | O=C1NC(=O)C(Cc2c[nH]c3ccccc23)N1 (stereo unspecified) | 235 to 237
146 | CCN(c1ccccc1)S(=O)(=O)c1cc(C(=O)O)ccc1C | 160 to 162
